US12715849B2, “Herbicidal tetrazole compounds” (SYNGENTA CROP PROTECTION AG, priority 2020, dated 2026)

How the values were obtained:
Assay in all cases: Glasshouse herbicidal test, pre- and post-emergence (Table B1)
Assay type in all cases: in vivo
Setaria faberi (SETFA) = details: 130 g/h, evaluated after 13 days; for percentage damage caused to the plant, POST Application SETFA: post-emergence; for percentage damage caused to the plant, PRE Application SETFA: pre-emergence
Procedure: (§1) Seeds of a variety of test species are sown in standard soil in pots (Lolium perenne (LOLPE), Amaranthus retoflexus (AMARE), Amaranthus palmeri (AMAPA), Ablution theophrasti (ABUTH), Setaria faberi (SETFA), Echinochloa crus-galli (ECHCG), Ipomoea hederacea (IPOHE)). After cultivation for one day (pre-emergence) or after 8 days cultivation (post-emergence) under controlled conditions in a glasshouse (at 24/16° C., day/night; 14 hours light; 65% humidity), the plants are sprayed with an aqueous spray solution derived from the formulation of the technical active ingredient in acetone/water (50:50) solution containing 0.5% Tween 20 (polyoxyethelyene sorbitan monolaurate, CAS RN 9005-64-5). Compounds are applied at 130 g/h unless otherwise indicated. The test plants are then grown in a glasshouse under controlled conditions in a glasshouse (at 24/16° C., day/night; 14 hours light; 65% humidity) and watered twice daily. After 13 days for pre and post-emergence, the test is evaluated for the percentage damage caused to the plant. The biological activities are shown in the following table on a five-point scale (5=80-100%; 4=60-79%; 3=40-59%; 2=20-39%; 1=0-19%).

[1] = tested on: Echinochloa crus-galli (ECHCG); details: 130 g/h, evaluated after 13 days; for percentage damage caused to the plant, PRE Application ECHCG: pre-emergence; for percentage damage caused to the plant, POST Application ECHCG: post-emergence
Procedure: as §1

[2] = tested on: Ipomoea hederacea (IPOHE); details: 130 g/h, evaluated after 13 days; for percentage damage caused to the plant, POST Application IPOHE: post-emergence; for percentage damage caused to the plant, PRE Application IPOHE: pre-emergence
Procedure: as §1

[3] = tested on: Amaranthus retoflexus (AMARE); details: 130 g/h, evaluated after 13 days; for percentage damage caused to the plant, POST Application AMARE: post-emergence; for percentage damage caused to the plant, PRE Application AMARE: pre-emergence
Procedure: as §1

[4] = tested on: Amaranthus palmeri (AMAPA); details: 130 g/h, evaluated after 13 days; for percentage damage caused to the plant, POST Application AMAPA: post-emergence; for percentage damage caused to the plant, PRE Application AMAPA: pre-emergence
Procedure: as §1

[5] = tested on: Ablution theophrasti (ABUTH); details: 130 g/h, evaluated after 13 days; for percentage damage caused to the plant, PRE Application ABUTH: pre-emergence; for percentage damage caused to the plant, POST Application ABUTH: post-emergence
Procedure: as §1

SMILES	percentage damage caused to the plant, POST Application SETFA (Setaria faberi (SETFA))	percentage damage caused to the plant, PRE Application SETFA (Setaria faberi (SETFA))	percentage damage caused to the plant, PRE Application ECHCG [1]	percentage damage caused to the plant, POST Application IPOHE [2]	percentage damage caused to the plant, PRE Application IPOHE [2]	percentage damage caused to the plant, POST Application AMARE [3]	percentage damage caused to the plant, PRE Application AMARE [3]	percentage damage caused to the plant, POST Application AMAPA [4]	percentage damage caused to the plant, PRE Application AMAPA [4]	percentage damage caused to the plant, POST Application ECHCG [1]	percentage damage caused to the plant, PRE Application ABUTH [5]	percentage damage caused to the plant, POST Application ABUTH [5]
CCN(c1c(OC(F)(F)F)ccc(C(=O)Nc2nnnn2C)c1Cl)S(C)(=O)=O [Compound 1.079]	5 (5=80-100%)	5 (5=80-100%)	5 (5=80-100%)	4 (4=60-79%)	4 (4=60-79%)	5 (5=80-100%)	5 (5=80-100%)	5 (5=80-100%)	5 (5=80-100%)	–	–	–
CN(c1c(OC(F)F)ccc(C(=O)Nc2nnnn2C)c1Cl)S(C)(=O)=O [Compound 1.071]	5 (5=80-100%)	5 (5=80-100%)	5 (5=80-100%)	4 (4=60-79%)	3 (3=40-59%)	5 (5=80-100%)	5 (5=80-100%)	5 (5=80-100%)	5 (5=80-100%)	5 (5=80-100%)	–	–
Cn1nnnc1NC(=O)c1ccc(OC(F)F)c(NS(C)(=O)=O)c1Cl [Compound 1.065]	5 (5=80-100%)	3 (3=40-59%)	4 (4=60-79%)	4 (4=60-79%)	2 (2=20-39%)	5 (5=80-100%)	5 (5=80-100%)	–	–	–	5 (5=80-100%)	–
CCn1nnnc1NC(=O)c1ccc(OC(F)(F)F)c(NS(=O)(=O)CC)c1Cl [Compound 1.002, 2-chloro-3-(ethylsulfonylamino)-N-(1-ethyltetrazol-5-yl)-4-(trifluoromethoxy)benzamide]	5 (5=80-100%)	5 (5=80-100%)	5 (5=80-100%)	4 (4=60-79%)	5 (5=80-100%)	5 (5=80-100%)	5 (5=80-100%)	–	–	5 (5=80-100%)	5 (5=80-100%)	5 (5=80-100%)
CCS(=O)(=O)Nc1c(OC(F)(F)C(F)F)ccc(C(=O)Nc2nnnn2C)c1Cl [Compound 1.086]	5 (5=80-100%)	4 (4=60-79%)	5 (5=80-100%)	5 (5=80-100%)	2 (2=20-39%)	5 (5=80-100%)	5 (5=80-100%)	5 (5=80-100%)	5 (5=80-100%)	5 (5=80-100%)	–	–
Cn1nnnc1NC(=O)c1ccc(OC(F)(F)F)c(NS(C)(=O)=O)c1Cl [Compound 1.004]	5 (5=80-100%)	5 (5=80-100%)	5 (5=80-100%)	4 (4=60-79%)	3 (3=40-59%)	5 (5=80-100%)	5 (5=80-100%)	–	–	5 (5=80-100%)	5 (5=80-100%)	5 (5=80-100%)
